The experiment concerns the target human aquaporin 9 (Homo sapiens (Human), UniProt O43315). In words: Calcein quenching fluostar assay (inhibition of human aquaporin 9). It counts as cell-based. The conditions noted are these: Human AQP9 cell line; example compounds used as 1 mM stock solutions in DMSO. The method, then: Calcein Quenching Fluostar Assay
A calcein quenching fluostar assay was performed in order to investigate the biological activity of the newly synthesized examples 1 to 57. This type of assay is disclosed in J. Biol. Chem., 2011, 286, 44319-44325 and Am. J. Physiol. Renal Physiol. (2010), 298, F224-230.
1) Two days prior to commencement of the assay, seed 10,000 cells/well of 96 well black clear bottom plate (Greiner Poly-lysin plate). A 1:1 mix of Dulbecco's Modified Eagle's Medium: Nutrient Mixture F-12 (DMEM: F12) was obtained from Gibco. Tetracycline stock of 5 mg/ml in 96% ethanol is used. Medium: DMEM/F12/10% Donor Bovine Serum, Human AQP9 cell line+1:270,000 tetracyclin, mouse AQP9 cell line+1:2,700,000 tetracycline.
2) Day of assay: Flick/slam off the medium and add 50 μl/well of loading solution: 5 ml DMEM/F12/10% Donor Bovine Serum, 25 μl Calcein AM—from freshly dissolved aliquot in 50 μl DMSO (VWR #734-1434), and 100 μl Probenecid.
3) Incubate the well for 90 minutes at 37° C.
4) Perform one wash with 75 μl wash buffer.
5) Add 75 μl of an example compound prepared in wash buffer per well.
Example compounds are prepared in 500 μl U bottom PP plates (NUNC). 2.7 μl Substance in DMSO are added to row A; 180 μl of wash buffer+1% DMSO are added to rows B—H. 90 μl from row A are transferred and mixed with all other wells (up to row G) to make a 3-fold dilution series.
6) Assay in FLUOstar Optima at 25° C. Settings buffer addition at 135 μl/seconds, add 75 μl/well, record time course for 30 seconds, add sucrose buffer 3.6 seconds into recording.
7) Normalization to initial in Excel.
8) Fit to “exponential decay” function in GraphPad Prism 5.0, then arrange half live shrinking values according to wells and fit dose-response curves.

human aquaporin 9, sequence (O43315 whole entry): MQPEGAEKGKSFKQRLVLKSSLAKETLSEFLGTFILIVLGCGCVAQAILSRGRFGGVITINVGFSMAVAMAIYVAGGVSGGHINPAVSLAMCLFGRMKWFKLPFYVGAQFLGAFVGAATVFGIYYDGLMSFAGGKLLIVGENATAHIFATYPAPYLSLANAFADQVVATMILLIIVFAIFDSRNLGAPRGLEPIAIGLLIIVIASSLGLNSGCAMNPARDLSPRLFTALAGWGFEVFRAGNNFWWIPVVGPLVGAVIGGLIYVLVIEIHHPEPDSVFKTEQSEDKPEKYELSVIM

Usually EC50 stands for the concentration that produces a half-maximal response. As for `CCc1nnc(SCC(=O)Nc2nnc(-c3ccc(OC)cc3)s2)n1-c1ccccc1` [Example 1, 2-[(5-ethyl-4-phenyl-4H-1,2,4-triazol-3-yl)sulfanyl]-N-[5-(4-methoxyphenyl)-1,3,4-thiadiazol-2-yl]acetamide], the EC50 was 173 nM.
For `CCc1nnc(SCC(=O)Nc2nnc(-c3ccc4c(c3)CCO4)s2)n1CC` [Example 18, 2-[(diethyl-4H-1,2,4-triazol-3-yl)sulfanyl]-N-[5-(2,3-dihydro-1-benzofuran-5-yl)-1,3,4-thiadiazol-2-yl]acetamide], the EC50 is 124 nM and the pEC50 in the inhibition of human aquaporin 9 is 6.9.
For `CCc1nnc(SCC(=O)Nc2nnc(-c3ccccn3)s2)n1CC` [Example 49, 2-[(4,5-diethyl-4H-1,2,4-triazol-3-yl)sulfanyl]-N-[5-(pyridin-2-yl)-1,3,4-thiadiazol-2-yl]acetamide], the EC50 is 224 nM.
Same read-out and setting: under `CCc1nnc(SCC(=O)Nc2nnc(-c3ccc(OC)cc3)s2)n1CCCO` [Example 40, 2-[(5-ethyl-4-(3-hydroxypropyl)-4H-1,2,4-triazol-3-yl)sulfanyl]-N-[5-(4-methoxyphenyl)-1,3,4-thiadiazol-2-yl]acetamide] stands 168 nM; under `CCn1c(CCOC)nnc1SCC(=O)Nc1nnc(-c2ccccc2)s1` [Example 22, 2-{[4-ethyl-5-(2-methoxyethyl)-4H-1,2,4-triazol-3-yl]sulfanyl}-N-(5-phenyl-1,3,4-thiadiazol-2-yl)acetamide], 249 nM; under `CCc1nnc(SCC(=O)Nc2nnc(-c3ccc(SC)cc3)s2)n1CC` [Example 12], 57 nM.
For the compound `COc1ccc(-c2nnc(NC(=O)CSc3nnc(C)n3-c3ccccc3)s2)cc1` [Example 11, N-[5-(4-methoxyphenyl)-1,3,4-thiadiazol-2-yl]-2-[(5-methyl-4-phenyl-4H-1,2,4-triazol-3-yl)sulfanyl]acetamide], the concentration giving a half-maximal response (EC50) is 394 nM and the pEC50 in the inhibition of human aquaporin 9 is 6.4.
With `CCc1nnc(SCC(=O)Nc2nnc(-c3ccc(C#N)cc3)s2)n1CC` [Example 32, N-[5-(4-cyanophenyl)-1,3,4-thiadiazol-2-yl]-2-[(4,5-diethyl-4H-1,2,4-triazol-3-yl)sulfanyl]acetamide], the EC50 is 43 nM.
Consider `CCc1nnc(SCC(=O)Nc2nnc(-c3ccc(C(C)C)cc3)s2)n1CC` [Example 20, 2-[(diethyl-4H-1,2,4-triazol-3-yl)sulfanyl]-N-{5-[4-(propan-2-yl)phenyl]-1,3,4-thiadiazol-2-yl}acetamide], for which the EC50 was 79 nM and the pEC50 in the inhibition of human aquaporin 9 was 7.1.
Take `CCn1c(SCC(=O)Nc2ccc(-c3ccc(OC)cc3)nn2)nnc1-c1ccc(F)cc1` [Example 9, 2-{[4-ethyl-5-(4-fluorophenyl)-4H-1,2,4-triazol-3-yl]sulfanyl}-N-[6-(4-methoxyphenyl)pyridazin-3-yl]acetamide]: the EC50 is 87 nM.
On the same count and under the same terms, under `CCc1nnc(SCC(=O)Nc2nnc(-c3ccc(C(F)(F)F)cc3)s2)n1CC` [Example 33, 2-[(4,5-diethyl-4H-1,2,4-triazol-3-yl)sulfanyl]-N-[5-(4-(trifluoromethyl)phenyl)-1,3,4-thiadiazol-2-yl]acetamide] stands 119 nM.
As to `CCn1c(Cc2ccccc2)nnc1SCC(=O)Nc1nnc(-c2ccc(OC)cc2)s1` [Example 3, 2-[(5-benzyl-4-ethyl-4H-1,2,4-triazol-3-yl)sulfanyl]-N-[5-(4-methoxyphenyl)-1,3,4-thiadiazol-2-yl]acetamide], the EC50 is 195 nM and the pEC50 in the inhibition of human aquaporin 9 was 6.7.
For `CCc1nnc(SCC(=O)Nc2nnc(-c3ccccc3)s2)n1CC` [Example 17, 2-[(diethyl-4H-1,2,4-triazol-3-yl)sulfanyl]-N-(5-phenyl-1,3,4-thiadiazol-2-yl)acetamide] the same measures were 127 nM and 6.9.
For `CCn1c(SCC(=O)Nc2nnc(-c3ccc(S(C)(=O)=O)cc3)s2)nnc1C1CC1` [Example 7, 2-[(5-cyclopropyl-4-ethyl-4H-1,2,4-triazol-3-yl)sulfanyl]-N-[5-(4-methanesulfonylphenyl)-1,3,4-thiadiazol-2-yl]acetamide] the same measures were 105 nM and 7.
Regarding `CCOc1ccc(-c2nnc(NC(=O)CSc3nnc(CC)n3CC)s2)cc1` [Example 25, 2-[(diethyl-4H-1,2,4-triazol-3-yl)sulfanyl]-N-[5-(4-ethoxyphenyl)-1,3,4-thiadiazol-2-yl]acetamide], the EC50 was 42 nM.
Still for that read-out and setting: the result for `CCc1nnc(SCC(=O)Nc2nnc(-c3ccc(OCCF)cc3)s2)n1CC` [Example 26, 2-[(diethyl-4H-1,2,4-triazol-3-yl)sulfanyl]-N-{5-[4-(2-fluoroethoxy)phenyl]-1,3,4-thiadiazol-2-yl}acetamide] reads 43 nM; that for `CCn1c(CCOC)nnc1SCC(=O)Nc1nnc(-c2ccc(OC)cc2)s1` [Example 44, 2-[(4-ethyl-5-(2-methoxyethyl)-4H-1,2,4-triazol-3-yl)sulfanyl]-N-[5-(4-methoxyphenyl)-1,3,4-thiadiazol-2-yl]acetamide], 457 nM; that for `CCn1c(SCC(=O)Nc2nnc(-c3ccc(OCCF)cc3)s2)nnc1C(C)C` [Example 28, 2-{[4-ethyl-5-(propan-2-yl)-4H-1,2,4-triazol-3-yl]sulfanyl}-N-{5-[4-(2-fluoroethoxy)phenyl]-1,3,4-thiadiazol-2-yl}acetamide], 44 nM.
Still for that read-out and setting: the result for `CCc1nnc(SCC(=O)Nc2nnc(-c3ccc(Cl)cc3)s2)n1CC` [Example 35, N-[5-(4-chlorophenyl)-1,3,4-thiadiazol-2-yl]-2-[(4,5-diethyl-4H-1,2,4-triazol-3-yl)sulfanyl]acetamide] reads 54 nM; that for `CCc1nnc(SCC(=O)Nc2nnc(-c3ccc(OC)cc3)s2)n1CCOC` [Example 46, 2-[(5-ethyl-4-(2-methoxyethyl)-4H-1,2,4-triazol-3-yl)sulfanyl]-N-[5-(4-methoxyphenyl)-1,3,4-thiadiazol-2-yl]acetamide], 112 nM.
Turning to `CCc1nnc(SCC(=O)Nc2nnc(-c3ccc(OCC(C)C)cc3)s2)n1CC` [Example 13, 2-[(diethyl-4H-1,2,4-triazol-3-yl)sulfanyl]-N-{5-[4-(2-methylpropoxy)phenyl]-1,3,4-thiadiazol-2-yl}acetamide], the EC50 is 101 nM and the pEC50 in the inhibition of human aquaporin 9 is 7.
For `CCc1nnc(SCC(=O)Nc2nnc(-c3ccc(OC)cc3)s2)n1C1CC1` [Example 36, 2-[(4-cyclopropyl-5-ethyl-4H-1,2,4-triazol-3-yl)sulfanyl]-N-[5-(4-methoxyphenyl)-1,3,4-thiadiazol-2-yl]acetamide], in that order: 51 nM and 7.3.

Values taken from patent US10730865B2, “Compounds for modulating aquaporins” (APOGLYX AB, priority 2016, dated 2020).
